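Grown in 96-well plates, cells were treated for 48 hours with each compound at five concentrations. Insufficient inhibition: endpoint recorded as highest concentration tested. Abbreviation: GI50, concentration required for 50% inhibition of growth.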 Calls of active or inactive are those of the source. Cut-off read from the data, not from the text of the source: active = GI50 up to about 1.1 µM and inactive = higher.
Experiments:
Test in all cases: DTP human tumour cell line panel, 48 h
SF-268 = tested on: SF-268
K562 = tested on: K562
HCT-15 = tested on: HCT-15
RPMI-8226 = tested on: RPMI-8226
LOX IMVI = tested on: LOX IMVI
SK-MEL-2 = tested on: SK-MEL-2
NCI-H226 = tested on: NCI-H226
SK-MEL-5 = tested on: SK-MEL-5
OVCAR-5 = tested on: OVCAR-5
IGROV-1 = tested on: IGROV-1
ACHN = tested on: ACHN
Malme-3M = tested on: Malme-3M
HCT-116 = tested on: HCT-116
SNB-75 = tested on: SNB-75
NCI-H460 = tested on: NCI-H460
SF-295 = tested on: SF-295
MOLT-4 = tested on: MOLT-4
CCRF-CEM = tested on: CCRF-CEM
NCI-H23 = tested on: NCI-H23
SK-MEL-28 = tested on: SK-MEL-28

Measured: GI50

COc1cccc(C2c3cc4c(cc3OC(N3CCOCC3)C2C)OCO4)c1 (stereo unspecified)
6.31 µM: HCT-15
inactive: SF-268 16.7 µM | K562 3.1 µM | RPMI-8226 > 100 µM | LOX IMVI 5.28 µM | SK-MEL-2 12.2 µM | NCI-H226 15.6 µM | SK-MEL-5 4.37 µM | OVCAR-5 27 µM | IGROV-1 15 µM | ACHN 14.7 µM | Malme-3M 10.5 µM | HCT-116 13.2 µM | SNB-75 28.3 µM | NCI-H460 14.2 µM | SF-295 9.64 µM | MOLT-4 2.7 µM

COc1ccc(-c2cs/c(=N\c3ccccc3)n2CCCN(C)C)cc1
inactive: SF-268 24.3 µM | RPMI-8226 24.5 µM | CCRF-CEM 21.1 µM | SK-MEL-2 19.8 µM | NCI-H226 18.2 µM | NCI-H23 23.1 µM | OVCAR-5 14.8 µM | ACHN 21.8 µM | SK-MEL-28 18.2 µM | SNB-75 4.44 µM | NCI-H460 23.8 µM | SF-295 13 µM | MOLT-4 16.5 µM
24.8 µM: HCT-15

CCN(CC)CCO[Si](OCCN(CC)CC)(OCCN(CC)CC)OCCN(CC)CC
> 100 µM: HCT-15
inactive: LOX IMVI > 100 µM | SK-MEL-2 > 100 µM | NCI-H226 88.5 µM | SK-MEL-5 > 100 µM | NCI-H23 > 100 µM | OVCAR-5 > 100 µM | IGROV-1 > 100 µM | SK-MEL-28 > 100 µM | Malme-3M > 100 µM | HCT-116 > 10 µM | SNB-75 > 100 µM | NCI-H460 > 100 µM | SF-295 > 100 µM

O=C(Nc1ccc(Cl)c(Cl)c1)C(=O)C(C(=O)c1ccccc1F)C1OC(=O)c2ccccc21 (stereo unspecified)
inactive: SF-268 23.7 µM | K562 22 µM | RPMI-8226 18.2 µM | LOX IMVI 18.4 µM | CCRF-CEM 13.8 µM | SK-MEL-2 12.3 µM | NCI-H226 17.9 µM | SK-MEL-5 15.9 µM | NCI-H23 28.6 µM | OVCAR-5 49.1 µM | IGROV-1 27.4 µM | ACHN 31.9 µM | SK-MEL-28 25.3 µM | HCT-116 16.8 µM | SNB-75 18.6 µM | NCI-H460 18.6 µM | SF-295 37.5 µM | MOLT-4 29.6 µM
13.7 µM: HCT-15

COc1nc(N=P(c2ccccc2)(c2ccccc2)c2ccccc2)cc(=O)n1C
inactive: SF-268 > 100 µM | K562 > 100 µM | RPMI-8226 > 100 µM | LOX IMVI > 100 µM | CCRF-CEM > 100 µM | SK-MEL-2 > 100 µM | NCI-H226 > 100 µM | SK-MEL-5 > 100 µM | NCI-H23 > 100 µM | OVCAR-5 > 100 µM | IGROV-1 > 100 µM | ACHN > 100 µM | SK-MEL-28 > 100 µM | HCT-116 > 100 µM | SNB-75 54.8 µM | NCI-H460 > 100 µM | SF-295 > 100 µM | MOLT-4 > 100 µM
> 100 µM: HCT-15

COc1ccc(/C=N\N2CC(=O)N3C4C=CC(CC4)N3C2=O)cc1 (stereo unspecified)
> 100 µM: HCT-15
inactive: SF-268 88.7 µM | K562 > 100 µM | RPMI-8226 > 100 µM | LOX IMVI > 100 µM | CCRF-CEM > 100 µM | SK-MEL-2 > 100 µM | NCI-H226 > 100 µM | SK-MEL-5 54.7 µM | NCI-H23 > 100 µM | OVCAR-5 > 100 µM | IGROV-1 > 100 µM | ACHN > 100 µM | SK-MEL-28 > 100 µM | HCT-116 > 100 µM | SNB-75 22.2 µM | NCI-H460 > 100 µM | SF-295 > 100 µM | MOLT-4 > 100 µM

FC(F)(Sc1nc2ccccc2[nH]1)c1nc2ccccc2o1
inactive: SF-268 > 100 µM | K562 > 100 µM | RPMI-8226 > 100 µM | CCRF-CEM > 100 µM | SK-MEL-2 > 100 µM | NCI-H226 > 100 µM | SK-MEL-5 > 100 µM | NCI-H23 > 100 µM | OVCAR-5 > 100 µM | IGROV-1 > 100 µM | ACHN > 100 µM | SK-MEL-28 > 100 µM | Malme-3M 24.4 µM | HCT-116 > 100 µM | SNB-75 > 100 µM | NCI-H460 > 100 µM | SF-295 > 100 µM | MOLT-4 > 100 µM
> 100 µM: HCT-15

Sc1ncc(-c2cncc(-c3cnc(S)nc3)n2)cn1
inactive: SF-268 > 100 µM | K562 > 100 µM | RPMI-8226 > 100 µM | CCRF-CEM > 100 µM | SK-MEL-2 > 100 µM | NCI-H226 > 100 µM | SK-MEL-5 > 100 µM | NCI-H23 > 100 µM | OVCAR-5 > 100 µM | IGROV-1 > 100 µM | ACHN > 100 µM | SK-MEL-28 > 100 µM | Malme-3M > 100 µM | HCT-116 > 100 µM | SNB-75 > 100 µM | NCI-H460 > 100 µM | SF-295 > 100 µM | MOLT-4 > 100 µM
> 100 µM: HCT-15

CC1CC(c2ccccc2)=Nc2ccccc2S1 (stereo unspecified)
> 100 µM: HCT-15
inactive: SF-268 > 100 µM | K562 79.4 µM | RPMI-8226 68.5 µM | LOX IMVI 84.7 µM | CCRF-CEM 34.7 µM | SK-MEL-2 > 100 µM | NCI-H226 > 100 µM | SK-MEL-5 > 100 µM | NCI-H23 > 100 µM | OVCAR-5 > 100 µM | IGROV-1 > 100 µM | ACHN > 100 µM | SK-MEL-28 > 100 µM | HCT-116 > 100 µM | SNB-75 > 100 µM | NCI-H460 > 100 µM | SF-295 > 100 µM | MOLT-4 77.8 µM

CCC12CC[C@H](C#N)N3CCc4c(n(c5ccccc45)C(=O)C1)C32 (stereo partly specified)
inactive: SF-268 17.9 µM | K562 5.28 µM | RPMI-8226 17.9 µM | LOX IMVI 14.1 µM | CCRF-CEM 12.3 µM | SK-MEL-2 14.1 µM | SK-MEL-5 12.7 µM | NCI-H23 15.4 µM | OVCAR-5 21.5 µM | IGROV-1 24.8 µM | ACHN > 10 µM | SK-MEL-28 15.2 µM | Malme-3M 4.02 µM | HCT-116 13.9 µM | SNB-75 5.56 µM | NCI-H460 13.3 µM | SF-295 12.4 µM | MOLT-4 15 µM
5.2 µM: HCT-15

COc1cc(C)c(CC/C(C)=C/Cc2cc(O)ccc2O)c(C)c1C [PANICEIN A HYDROQUINONE]
> 25 µM: HCT-15
inactive: SF-268 > 25 µM | K562 > 25 µM | RPMI-8226 > 25 µM | CCRF-CEM 7.69 µM | SK-MEL-2 > 25 µM | NCI-H226 > 25 µM | SK-MEL-5 > 25 µM | NCI-H23 > 25 µM | IGROV-1 > 25 µM | ACHN > 25 µM | SK-MEL-28 > 25 µM | Malme-3M > 25 µM | HCT-116 > 25 µM | SNB-75 > 25 µM | NCI-H460 > 25 µM | SF-295 > 25 µM | MOLT-4 > 25 µM

Reference: ChEMBL document CHEMBL1201862, “PubChem BioAssay data set” (2004)
